Data taken from patent US12503471B2, “Triazatricycle compounds for the treatment of autoimmune disease” (Hoffmann-La Roche Inc., priority 2019, dated 2025).
Blank lines part the entries; values can stand above or below the compound they belong to.

What was measured:
human TLR9 = target: T1, human TLR9 (Homo sapiens, UniProt Q9NR96); experiment: HEK293-Blue-hTLR-9 cells assay; format: cell-based; conditions: HEK293-Blue-hTLR9 cells, ODN2006 stimulation, 20 hrs, SEAP reporter; read-out: HEK/hTLR9 IC50
T1 construct: host or cells: HEK293 (HEK-Blue hTLR9)
T1 sequence (Q9NR96 26-1032): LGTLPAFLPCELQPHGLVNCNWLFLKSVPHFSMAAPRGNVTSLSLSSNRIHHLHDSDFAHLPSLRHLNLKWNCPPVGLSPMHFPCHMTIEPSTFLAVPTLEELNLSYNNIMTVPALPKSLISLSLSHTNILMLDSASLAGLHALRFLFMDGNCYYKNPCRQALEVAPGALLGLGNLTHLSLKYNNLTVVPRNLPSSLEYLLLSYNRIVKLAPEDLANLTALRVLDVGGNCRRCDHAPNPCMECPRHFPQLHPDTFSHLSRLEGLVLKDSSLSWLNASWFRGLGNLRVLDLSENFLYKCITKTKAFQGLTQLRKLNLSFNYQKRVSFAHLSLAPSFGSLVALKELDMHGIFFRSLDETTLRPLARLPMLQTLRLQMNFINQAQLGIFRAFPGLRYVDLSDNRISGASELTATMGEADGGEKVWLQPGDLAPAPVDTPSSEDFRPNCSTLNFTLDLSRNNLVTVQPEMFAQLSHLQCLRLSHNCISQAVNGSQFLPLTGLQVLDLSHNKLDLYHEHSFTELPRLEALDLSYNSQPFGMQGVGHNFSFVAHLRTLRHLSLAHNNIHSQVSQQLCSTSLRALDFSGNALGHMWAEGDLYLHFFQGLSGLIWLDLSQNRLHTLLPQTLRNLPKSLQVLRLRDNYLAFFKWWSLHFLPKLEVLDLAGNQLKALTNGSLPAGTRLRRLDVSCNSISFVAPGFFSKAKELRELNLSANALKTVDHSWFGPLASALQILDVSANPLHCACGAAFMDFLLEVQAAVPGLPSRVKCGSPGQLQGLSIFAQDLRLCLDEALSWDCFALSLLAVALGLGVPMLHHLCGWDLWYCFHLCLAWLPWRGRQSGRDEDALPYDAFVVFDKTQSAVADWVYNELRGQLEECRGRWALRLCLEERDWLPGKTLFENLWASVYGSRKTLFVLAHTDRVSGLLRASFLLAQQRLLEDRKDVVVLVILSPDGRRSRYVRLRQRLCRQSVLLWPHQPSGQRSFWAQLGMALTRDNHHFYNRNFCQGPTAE
From the text: HEK293-Blue-hTLR-9 Cells Assay:
A stable HEK293-Blue-hTLR-9 cell line was purchased from InvivoGen (Cat. #: hkb-htlr9, San Diego, Calif., USA). These cells were originally designed for studying the stimulation of human TLR9 by monitoring the activation of NF-κB. A SEAP (secreted embryonic alkaline phosphatase) reporter gene was placed under the control of the IFN-β minimal promoter fused to five NF-κB and AP-1-binding sites. The SEAP was induced by activating NF-κB and AP-1 via stimulating HEK-Blue hTLR9 cells with TLR9 ligands. Therefore the reporter expression was declined by TLR9 antagonist under the stimulation of a ligand, such as ODN2006 (Cat. #: tlrl-2006-1, Invivogen, San Diego, Calif., USA), for incubation of 20 hrs. The cell culture supernatant SEAP reporter activity was determined using QUANTI-Blue^TM kit (Cat. #: rep-qbl, Invivogen, San Diego, Calif., USA) at a wavelength of 640 nm, a detection medium that turns purple or blue in the presence of alkaline phosphatase.
HEK293-Blue-hTLR9 cells were incubated at a density of 250,000˜450,000 cells/mL in a volume of 170 μL in a 96-well plate in Dulbecco's Modified Eagle's medium (DMEM) containing 4.5 g/L glucose, 50 U/mL penicillin, […] streptomycin, […] Normocin, 2 mM L-glutamine, 10% (v/v) heat-inactivated fetal bovine serum with addition of 20 μL test compound in a serial dilution in the presence of final DMSO at 1% and 10 μL of 20 uM ODN2006 in above DMEM, perform incubation under 37° C. in a CO2 incubator for 20 hrs. Then 20 μL of the supernatant from each well was incubated with 180 μL Quanti-blue substrate solution at 37° C. for 2 h and the absorbance was read at 620-655 nm using a spectrophotometer. The signaling pathway that TLR9 activation leads to downstream NF-κB activation has been widely accepted, and therefore similar reporter assay was modified for evaluating TLR9 antagonist.

[1] = Human microsomal stability assay; format: in vitro ADME; conditions: human liver microsomes, 1 μM test compound, 0.5 mg/mL protein, 37° C., pH 7.4
Description: Human Microsomal Stability Assay
Human liver microsomes (Cat.NO.: 452117, Corning, USA) were preincubated with test compound for 10 minutes at 37° C. in 100 mM potassium phosphate buffer, pH 7.4. The reactions were initiated by adding NADPH regenerating system. The final incubation mixtures contained 1 μM test compound, 0.5 mg/mL liver microsomal protein, 1 mM MgCl2, 1 mM NADP, 1 unit/mL isocitric dehydrogenase and 6 mM isocitric acid in 100 mM potassium phosphate buffer, pH 7.4. After incubation times of 0, 3, 6, 9, 15 and 30 minutes at 37° C., 300 μL of cold ACN (including internal standard) was added to 100 μL incubation mixture to terminate the reaction. Following precipitation and centrifugation, 100 uL supernatant will be taken out and added 300 uL water. The amount of compound remaining in the samples was determined by LC-MS/MS. Controls of no NADPH regenerating system at zero and 30 minutes were also prepared and analyzed. The results were categorized as: low (7.0 mL/min/kg), medium (7.0-16.2 mL/min/kg) and high (16.2-23.2 mL/min/kg).

SMILES: C[C@@H]1CN(c2ccc(C#N)c3ncccc23)C[C@@H]2c3ccc(N4CCCNCC4)nc3CN12 [Example 20, 5-[(2S,6R)-11-(1,4-diazepan-1-yl)-6-methyl-4,7,10-triazatricyclo[7.4.0.02,7]trideca-1(9),10,12-trien-4-yl]quinoline-8-carbonitrile]
IC50 (human TLR9): 206 nM

SMILES: [2H]c1ccc2c(N3C[C@@H](C)N4Cc5nc(N6CC[C@H](N)[C@H](OC)C6)ccc5[C@H]4C3)ccc(C#N)c2n1 [Example 13, 5-[(2S,6R)-11-[(3R,4S)-4-amino-3-methoxy-1-piperidyl]-6-methyl-4,7,10-triazatricyclo[7.4.0.02,7]trideca-1(9),10,12-trien-4-yl]-2-deuterio-quinoline-8-carbonitrile]
IC50 (human TLR9): 289 nM
CL (h) [1]: 9.4 mL/min/kg

SMILES: [2H]c1ccc2c(N3C[C@@H](C)N4Cc5nc(N6CC[C@@H](N)[C@H](OC)C6)ccc5[C@H]4C3)ccc(C#N)c2n1 [Example 11, 5-[(2S,6R)-11-[(3R,4R)-4-amino-3-methoxy-1-piperidyl]-6-methyl-4,7,10-triazatricyclo[7.4.0.02,7]trideca-1(9),10,12-trien-4-yl]-2-deuterio-quinoline-8-carbonitrile]
IC50 (human TLR9): 202 nM
CL (h) [1]: 7.1 mL/min/kg

SMILES: C[C@@H]1CN(c2ccc(C#N)c3ncccc23)C[C@@H]2c3cnc(N4CCNCC4)cc3CN12 [Example 2, 5-[(2S,6R)-6-methyl-11-piperazin-1-yl-4,7,12-triazatricyclo[7.4.0.02,7]trideca-1(9),10,12-trien-4-yl] quinoline-8-carbonitrile]
IC50 (human TLR9): 449 nM
CL (h) [1]: 6.2 mL/min/kg

SMILES: [2H]c1ccc2c(N3C[C@@H](C)N4Cc5nc(N6CCC7(CC6)CNCCO7)ccc5[C@H]4C3)ccc(C#N)c2n1 [Example 18, 2-Deuterio-5-[(2S,6R)-6-methyl-11-(1-oxa-4,9-diazaspiro[5.5]undecan-9-yl)-4,7,10-triazatricyclo[7.4.0.02,7]trideca-1(9),10,12-trien-4-yl]quinoline-8-carbonitrile]
IC50 (human TLR9): 262 nM

SMILES: C[C@@H]1CN(c2ccc(C#N)c3ncccc23)C[C@@H]2c3ccc(N4CC5CNCC(C4)O5)nc3CN12 [Example 6, 5-[(2S,6R)-6-methyl-11-(9-oxa-3,7-diazabicyclo[3.3.1]nonan-3-yl)-4,7,10-triazatricyclo[7.4.0.02,7]trideca-1(9),10,12-trien-4-yl]quinoline-8-carbonitrile]
IC50 (human TLR9): 195 nM
CL (h) [1]: 6.2 mL/min/kg

SMILES: [2H]c1ccc2c(N3C[C@@H](C)N4Cc5nc(N6C[C@H]7C[C@@H]6CN7)ccc5[C@H]4C3)ccc(C#N)c2n1 [Example 17, 2-Deuterio-5-[(2S,6R)-11-[(1R,4R)-2,5-diazabicyclo[2.2.1]heptan-2-yl]-6-methyl-4,7,10-triazatricyclo[7.4.0.02,7]trideca-1(9),10,12-trien-4-yl]quinoline-8-carbonitrile]
IC50 (human TLR9): 53.4 nM

SMILES: [2H]c1ccc2c(N3C[C@@H](C)N4Cc5nc(N6CC[C@@H](OC)[C@H](N)C6)ccc5[C@H]4C3)ccc(C#N)c2n1 [Example 15, 5-[(2S,6R)-11-[(3R,4R)-3-amino-4-methoxy-1-piperidyl]-6-methyl-4,7,10-triazatricyclo[7.4.0.02,7]trideca-1(9),10,12-trien-4-yl]-2-deuterio-quinoline-8-carbonitrile]
IC50 (human TLR9): 212 nM

SMILES: [2H]c1ccc2c(N3C[C@@H](C)N4Cc5nc(O[C@H]6CCNC6)ccc5[C@H]4C3)ccc(C#N)c2n1 [Example 25, 2-Deuterio-5-[(2S,6R)-6-methyl-11-[(3S)-pyrrolidin-3-yl]oxy-4,7,10-triazatricyclo[7.4.0.02,7]trideca-1(9),10,12-trien-4-yl]quinoline-8-carbonitrile]
IC50 (human TLR9): 274 nM

SMILES: [2H]c1ccc2c(N3C[C@@H](C)N4Cc5nc(N6CC[C@H]7CNC[C@H]76)ccc5[C@H]4C3)ccc(C#N)c2n1 [Example 10, 5-[(2S,6R)-11-[(3aS,6aS)-3,3a,4,5,6,6a-hexahydro-2H-pyrrolo[2,3-c]pyrrol-1-yl]-6-methyl-4,7,10-triazatricyclo[7.4.0.02,7]trideca-1(9),10,12-trien-4-yl]-2-deuterio-quinoline-8-carbonitrile]
IC50 (human TLR9): 186 nM

Continued, values first:

IC50 (human TLR9): 118 nM
CL (h) [1]: 6.2 mL/min/kg
SMILES: [2H]c1ccc2c(N3C[C@@H](C)N4Cc5nc(OC6CCNCC6)ccc5[C@H]4C3)ccc(C#N)c2n1 [Example 24, 2-Deuterio-5-[(2S,6R)-6-methyl-11-(4-piperidyloxy)-4,7,10-triazatricyclo[7.4.0.02,7]trideca-1(9),10,12-trien-4-yl]quinoline-8-carbonitrile]

IC50 (human TLR9): 142 nM
SMILES: [2H]c1ccc2c(N3C[C@@H](C)N4Cc5nc(N6CCC(C)(N)CC6)ccc5[C@H]4C3)ccc(C#N)c2n1 [Example 19, 5-[(2S,6R)-11-(4-amino-4-methyl-1-piperidyl)-6-methyl-4,7,10-triazatricyclo[7.4.0.02,7]trideca-1(9),10,12-trien-4-yl]-2-deuterio-quinoline-8-carbonitrile]

IC50 (human TLR9): 106 nM
CL (h) [1]: 6.2 mL/min/kg
SMILES: [2H]c1ccc2c(N3C[C@@H](C)N4Cc5nc(N6CCC7(CNC7)C6)ccc5[C@H]4C3)ccc(C#N)c2n1 [Example 9, 2-Deuterio-5-[(2S,6R)-11-(2,6-diazaspiro[3.4]octan-6-yl)-6-methyl-4,7,10-triazatricyclo[7.4.0.02,7]trideca-1(9),10,12-trien-4-yl]quinoline-8-carbonitrile]

IC50 (human TLR9): 305 nM
SMILES: [2H]c1ccc2c(N3C[C@@H](C)N4Cc5nc(N6CC[C@H](N)[C@@H](OC)C6)ccc5[C@H]4C3)ccc(C#N)c2n1 [Example 12, 5-[(2S,6R)-11-[(3S,4S)-4-amino-3-methoxy-1-piperidyl]-6-methyl-4,7,10-triazatricyclo[7.4.0.02,7]trideca-1(9),10,12-trien-4-yl]-2-deuterio-quinoline-8-carbonitrile]

IC50 (human TLR9): 316 nM
SMILES: [2H]c1ccc2c(N3C[C@@H](C)N4Cc5nc(N6CC[C@H](OC)[C@@H](N)C6)ccc5[C@H]4C3)ccc(C#N)c2n1 [Example 14, 5-[(2S,6R)-11-[(3S,4S)-3-amino-4-methoxy-1-piperidyl]-6-methyl-4,7,10-triazatricyclo[7.4.0.02,7]trideca-1(9),10,12-trien-4-yl]-2-deuterio-quinoline-8-carbonitrile]
